Test results from ChEMBL document CHEMBL5512601, “Small-molecule inhibitors targeting apoptosis signal-regulated kinase 1” (Eur J Med Chem, 2023).
One block for each compound: values may come before it.

Experiments:
[1] = molecular target: T1, Mitogen-activated protein kinase kinase kinase 5 (Homo sapiens, UniProt Q99683); test: Inhibition of ASK1 (unknown origin)
T1 sequence (Q99683 whole entry): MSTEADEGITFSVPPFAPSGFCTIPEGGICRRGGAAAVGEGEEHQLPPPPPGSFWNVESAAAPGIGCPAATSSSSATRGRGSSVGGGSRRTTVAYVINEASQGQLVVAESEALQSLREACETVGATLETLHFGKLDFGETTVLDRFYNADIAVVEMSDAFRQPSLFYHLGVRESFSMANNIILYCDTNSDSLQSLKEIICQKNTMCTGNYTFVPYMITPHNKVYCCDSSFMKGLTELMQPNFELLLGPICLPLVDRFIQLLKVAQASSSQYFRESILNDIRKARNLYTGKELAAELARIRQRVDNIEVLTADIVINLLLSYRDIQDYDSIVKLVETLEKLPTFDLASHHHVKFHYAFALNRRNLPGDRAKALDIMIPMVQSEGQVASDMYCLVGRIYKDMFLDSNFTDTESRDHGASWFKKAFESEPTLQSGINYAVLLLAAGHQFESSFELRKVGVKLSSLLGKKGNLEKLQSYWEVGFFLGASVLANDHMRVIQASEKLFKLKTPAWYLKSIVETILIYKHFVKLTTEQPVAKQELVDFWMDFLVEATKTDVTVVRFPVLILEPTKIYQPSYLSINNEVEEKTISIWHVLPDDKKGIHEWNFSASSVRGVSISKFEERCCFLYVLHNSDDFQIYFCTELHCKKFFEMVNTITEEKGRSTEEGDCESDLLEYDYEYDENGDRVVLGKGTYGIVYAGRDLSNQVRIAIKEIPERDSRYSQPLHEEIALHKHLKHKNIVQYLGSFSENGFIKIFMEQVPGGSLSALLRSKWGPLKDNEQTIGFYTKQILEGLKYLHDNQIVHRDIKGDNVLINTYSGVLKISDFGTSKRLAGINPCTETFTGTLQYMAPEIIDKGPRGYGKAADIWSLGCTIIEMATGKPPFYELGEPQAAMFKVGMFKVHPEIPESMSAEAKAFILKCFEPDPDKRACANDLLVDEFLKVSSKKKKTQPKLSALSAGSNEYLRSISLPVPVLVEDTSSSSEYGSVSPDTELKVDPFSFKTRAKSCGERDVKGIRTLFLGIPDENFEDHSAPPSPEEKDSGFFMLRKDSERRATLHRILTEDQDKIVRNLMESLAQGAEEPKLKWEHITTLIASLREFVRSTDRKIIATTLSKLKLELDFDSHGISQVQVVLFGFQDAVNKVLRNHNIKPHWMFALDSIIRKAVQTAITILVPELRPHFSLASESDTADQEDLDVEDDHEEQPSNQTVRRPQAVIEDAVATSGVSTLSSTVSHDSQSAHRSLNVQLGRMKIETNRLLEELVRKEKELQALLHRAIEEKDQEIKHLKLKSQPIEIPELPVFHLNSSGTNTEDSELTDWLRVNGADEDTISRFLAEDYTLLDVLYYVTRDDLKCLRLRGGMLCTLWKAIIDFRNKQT

[2] = molecular target: T1, Mitogen-activated protein kinase kinase kinase 5; test: Inhibition of ASK1 (unknown origin) incubated for 2 hrs
[3] = molecular target: T1, Mitogen-activated protein kinase kinase kinase 5; test: Inhibition of ASK1 phosphorylation in HEK293T cells incubated for 1 hr; type: cell-based
[4] = Unbound brain-to-plasma concentration ratio in rat at 1 mg/kg, iv by LC-MS/MS analysis; type: ADME, organism-based; conditions: brain and plasma, read-out: K(p,uu,brain)
[5] = molecular target: T1, Mitogen-activated protein kinase kinase kinase 5; test: Inhibition of N-terminal his-tagged human ASK1 (649 to 946 residues) expressed in Escherichia coli using [gamma-32p]ATP as substrate by liquid scintillation counting analysis
[6] = molecular target: T1, Mitogen-activated protein kinase kinase kinase 5; test: Inhibition of full length GST-tagged recombinant human ASK1 using MBP as substrate incubated for 20 mins by cell based assay
[7] = molecular target: T1, Mitogen-activated protein kinase kinase kinase 5; test: Inhibition of human recombinant ASK1 by HTRF assay
[8] = molecular target: T1, Mitogen-activated protein kinase kinase kinase 5; test: Inhibition of human ASK1 using STK-substrate biotin as substrate by TR-FRET assay
[9] = molecular target: T1, Mitogen-activated protein kinase kinase kinase 5; test: Inhibition of ASK1 (unknown origin) incubated for 0.5 to 5 hrs by TR-FRET assay
[10] = molecular target: T1, Mitogen-activated protein kinase kinase kinase 5; test: Inhibition of ASK1 (unknown origin) preincubated with compound for 30 mins followed by ATP addition and measured after 120 mins by HTRF analysis
[11] = molecular target: T1, Mitogen-activated protein kinase kinase kinase 5; test: Inhibition of human ASK1
[12] = Toxicity in C57BL/6J mouse harboring SOD1 mutant assessed as animal survival (reference value: 1.06%); conditions: in vivo, read-out: Activity
[13] = Cmax in rat 5 mg/kg, po measured upto 24 hrs by LC-MS/MS analysis; type: ADME, organism-based; conditions: in vivo
[14] = AUC (0 to t) in rat 5 mg/kg, po measured upto 24 hrs by LC-MS/MS analysis; type: ADME, organism-based; conditions: in vivo
[15] = Half life in rat 5 mg/kg, po measured upto 24 hrs by LC-MS/MS analysis; type: ADME, organism-based; conditions: in vivo
[16] = molecular target: 3-phosphoinositide-dependent protein kinase 1 (Homo sapiens) (UniProt O15530); test: Inhibition of PDK1 (unknown origin) at 10 uM relative to control
Chain of 3-phosphoinositide-dependent protein kinase 1 (Homo sapiens) (O15530 whole entry, looked up): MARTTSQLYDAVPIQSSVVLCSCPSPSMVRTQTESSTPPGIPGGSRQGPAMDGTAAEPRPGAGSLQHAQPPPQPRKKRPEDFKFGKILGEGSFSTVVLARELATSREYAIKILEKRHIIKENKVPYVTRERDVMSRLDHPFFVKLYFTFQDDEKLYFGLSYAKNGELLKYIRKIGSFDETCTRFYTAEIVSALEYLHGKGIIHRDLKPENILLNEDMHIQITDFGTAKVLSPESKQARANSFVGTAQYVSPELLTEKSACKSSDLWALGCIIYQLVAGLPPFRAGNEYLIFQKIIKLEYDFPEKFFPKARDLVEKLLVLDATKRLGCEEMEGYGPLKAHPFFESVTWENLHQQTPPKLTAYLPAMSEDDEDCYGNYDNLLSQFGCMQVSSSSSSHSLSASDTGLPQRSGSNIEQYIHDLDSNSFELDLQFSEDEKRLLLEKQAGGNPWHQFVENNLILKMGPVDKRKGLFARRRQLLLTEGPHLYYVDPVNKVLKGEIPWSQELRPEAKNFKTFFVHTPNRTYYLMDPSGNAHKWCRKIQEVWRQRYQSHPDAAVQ

IC50 [1]: < 10 nM
SMILES: CC(C)n1cnnc1-c1cccc(NC(=O)c2cc3c(cc2F)CNCCc2c(C4CC4)ncn2-3)n1

IC50 [6]: ≤ 100 nM
SMILES: Cc1cc(F)c(C(=O)Nc2cccc(-c3nnc4n3CCCC4)n2)cc1-n1cnc(C2CC2)n1

IC50 [9]: 4.1 nM
SMILES: Cc1cc(F)c(C(=O)Nc2cccc(-c3nnc4sccn34)n2)cc1-n1cnc(C2CC2)c1

IC50 [9]: 18 nM | IC50 [6]: ≤ 100 nM
SMILES: Cc1cc(F)c(C(=O)Nc2cccc(-c3nnc4n3CCCC4)n2)cc1-n1cnc(C2CC2)c1

IC50 [9]: 47.8 nM
SMILES: Cc1cc(F)c(C(=O)Nc2cccc(-c3nnc4n3CCNC4)n2)cc1-n1cnc(C2CC2)c1

IC50 [9]: 7.8 nM
SMILES: Cc1cc(F)c(C(=O)Nc2cccc(-c3nnc4ccccn34)n2)cc1-n1cnc(C2CC2)c1

IC50 [1]: 1.78 nM
SMILES: CC(C)n1cnnc1-c1cccc(N2Cc3cc(-n4cnc(C5CC5)c4)ccc3C2=O)n1

IC50 [9]: 10 nM
SMILES: Cc1cc(F)c(C(=O)Nc2cccc(-c3nnc4n3CCS(=O)(=O)C4)n2)cc1-n1cnc(C2CC2)c1

IC50 [1]: 0.93 nM
SMILES: CC(C)n1cnnc1-c1cccc(N2Cc3ccc(-n4cnc(C5CC5)c4)cc3C2=O)n1

Cmax [13]: 8190 ng/mL | AUC(0-t) at 24 h [14]: 19200 ng·h/mL | half-life [15]: 1.3 h | IC50 [9]: 3.9 nM
SMILES: Cc1cc2c(cc1-n1cnc(C3CC3)c1)C(=O)N(c1cccc(-c3nncn3C(C)C)n1)C2

IC50 [1]: 2.2 nM
SMILES: Cc1cc2c(cc1-n1cnc(C3CC3)c1)C(=O)N(c1cccc(-c3nncn3C(C)C)n1)CC2

IC50 [1]: 1.83 nM
SMILES: CC(C)n1cnnc1-c1cccc(N2CCc3ccc(-n4cnc(C5CC5)c4)cc3C2=O)n1

More lines, now with the values behind:

SMILES: C[C@H]1CCCOc2ncccc2C(=O)Nc2cccc(n2)-c2nncn21
IC50 [2]: < 100 nM | IC50 [3]: ≤ 1000 nM | Kp uu [4]: ≥ 0.1

SMILES: C=C(C)[C@@H]1CC[C@]2(C(=O)O)CC[C@]3(C)[C@H](C[C@H]4OC(=O)C[C@@H](O)[C@]5(C)[C@@H]4[C@@]3(C)CC[C@H]5C(=C)C)[C@@H]12
IC50 [5]: 370 nM

SMILES: CC(C)n1cnnc1-c1cccc(N2C(=O)c3ccc(-n4cnc(C5CC5)c4)cc3C2(C)C)n1
IC50 [1]: 3.22 nM

SMILES: Cc1ccc(-n2ccn(-c3cccc(-c4nncn4C(C)C)n3)c2=O)c(F)c1
IC50 [7]: 50 nM | EC50 [8]: ≤ 500 nM

SMILES: C=C(C)[C@@H]1CC[C@]2(C(=O)N(CCOCCOn3nnc4ccccc43)C(=O)OC(C)(C)C)CC[C@]3(C)[C@H](C[C@H]4OC(=O)C[C@@H](O)[C@]5(C)[C@@H]4[C@@]3(C)CC[C@H]5C(=C)C)[C@@H]12
IC50 [5]: 2.02 nM

SMILES: Cc1ccc(-c2cnc(-c3cccc(-c4nncn4C(C)C)n3)o2)c(F)c1
IC50 [7]: ≤ 50 nM

SMILES: CC(C)n1cnnc1-c1cccc(-n2cnc3ccc(-n4cnc(C5CC5)c4)cc3c2=O)n1
IC50 [10]: 11.1 nM

SMILES: COc1cc2nccc(Oc3ccc(NC(=O)c4cn(C(C)C)c5c(c4=O)CCC=C5)cc3)c2cc1OC
IC50 [11]: 6 nM | survival [12]: 1.09%

SMILES: CC(C)n1cnnc1-c1cccc(N2CCOc3ccc(-n4cnc(C5CC5)c4)cc3C2=O)n1
IC50 [10]: 4.26 nM

SMILES: CC(C)n1cnnc1-c1cccc(-n2ccc3ccc(-n4cnc(C5CC5)c4)cc3c2=O)n1
IC50 [1]: 2.71 nM

SMILES: CC(C)n1cnnc1-c1cccc(NC(=S)Nc2ccccn2)n1
IC50 [7]: 50 nM | EC50 [8]: ≤ 500 nM

SMILES: CC(C)n1cnnc1-c1cccc(-c2cn(C)c3ccc(-n4cnc(C5CC5)c4)cc3c2=O)n1
IC50 [10]: 1.37 nM

SMILES: CC(C)n1cnnc1-c1cccc(NC(=O)c2cc(-n3cnc(C4CC4)c3)ccn2)c1
inhibition [16]: 0.04%

SMILES: CC(C)n1cnnc1-c1cccc(-n2ncc3ccc(-n4cnc(C5CC5)c4)cc3c2=O)n1
IC50 [10]: 0.9 nM
